Key:
IRAK4 enzyme = target: T1, IRAK4 enzyme (Homo sapiens, UniProt Q9NWZ3); test: IRAK4 Biochemical Assay (TR-FRET, STK1 KinEASE); details: 500 μM ATP, Table 2 second part (compounds 33-343), read-out: IC50 IRAK4-HTBS
T1 construct: purchased Carna Biosciences, Chuo-ku, Kobe, Japan
T1 sequence (Q9NWZ3 1-460): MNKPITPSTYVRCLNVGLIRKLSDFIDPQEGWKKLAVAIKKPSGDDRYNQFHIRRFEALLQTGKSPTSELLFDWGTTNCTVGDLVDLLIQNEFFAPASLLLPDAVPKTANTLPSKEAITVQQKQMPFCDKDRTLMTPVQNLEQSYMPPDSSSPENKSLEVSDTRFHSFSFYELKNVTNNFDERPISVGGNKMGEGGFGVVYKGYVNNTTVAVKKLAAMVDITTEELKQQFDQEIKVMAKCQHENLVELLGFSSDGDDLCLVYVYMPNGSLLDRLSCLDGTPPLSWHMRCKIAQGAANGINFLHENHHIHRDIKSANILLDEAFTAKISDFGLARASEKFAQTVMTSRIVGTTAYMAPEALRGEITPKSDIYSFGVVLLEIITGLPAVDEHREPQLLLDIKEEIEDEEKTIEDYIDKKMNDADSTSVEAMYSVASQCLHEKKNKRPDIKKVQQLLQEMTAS
In short: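 Human IRAK4 (0.75 nM) preincubated 15 min with compound and 2 μM STK1 peptide, then reacted 120 min at room temperature with 500 μM ATP in HEPES pH 7.0 buffer with MgCl2 and DTT. EDTA stop with Cryptate anti-phosphopeptide antibody and tracer, 60 min; TR-FRET read as 665/615 nm ratio.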

TNFα = test: IRAK4 Monocyte TNFα Cell Based Assay (LPS-stimulated, TR-FRET TNFα detection); set-up: species or system human; details: Homo sapiens, Monocyte, human monocytes, LPS-stimulated; Table 2 second part (compounds 33-343); read-out: EC50 MONO TNF HTRF
In short: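 Monocytes (5,000 cells/well) treated with compound (0.1% DMSO) for 1 hour at 37° C, then stimulated with 50 pg/ml LPS for 4 hours. TNFα in medium quantified by TR-FRET two-antibody detection after overnight room-temperature incubation. Percent of control calculated against unstimulated (0%) and LPS-stimulated (100%) cells.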

In the case of `CC(C)Nc1cc(-c2ccc3cc(C#N)cnn23)ncc1-c1nnc(N2C[C@H]3CC[C@@H](C2)[C@@H]3NC(=O)CN=S(C)(C)=O)s1` [Example 98, N-((1R,5S,8s)-3-(5-(6-(3-cyanopyrrolo[1,2-b]pyridazin-7-yl)-4-(isopropylamino)pyridin-3-yl)-1,3,4-thiadiazol-2-yl)-3-azabicyclo[3.2.1]octan-8-yl)-2-((dimethyl(oxo)-16-sulfanylidene)amino)acetamide], the IC50 (IRAK4 enzyme) is reported as 1.13 nM and the EC50 (TNFα) is reported as 3.2 nM.
For `CC(C)Nc1cc(-c2ccc3cc(C#N)cnn23)ncc1-c1nnc(N2C[C@H]3CC[C@@H](C2)[C@@H]3NC(=O)C2CCN(C)CC2)s1` [Example 100, N-((1R,5S,8s)-3-(5-(6-(3-cyanopyrrolo[1,2-b]pyridazin-7-yl)-4-(isopropylamino)pyridin-3-yl)-1,3,4-thiadiazol-2-yl)-3-azabicyclo[3.2.1]octan-8-yl)-1-methylpiperidine-4-carboxamide], the IC50 (IRAK4 enzyme) was 0.8 nM and the EC50 (TNFα) was 2.1 nM.
Work on `CC(C)(O)C(=O)N[C@@H]1[C@@H]2CC[C@H]1CN(c1nnc(-c3cnc(-c4ccc5cc(C#N)cnn45)cc3NC3CCOCC3)s1)C2` [Example 101, N-((1R,5S,8s)-3-(5-(6-(3-cyanopyrrolo[1,2-b]pyridazin-7-yl)-4-((tetrahydro-2H-pyran-4-yl)amino)pyridin-3-yl)-1,3,4-thiadiazol-2-yl)-3-azabicyclo[3.2.1]octan-8-yl)-2-hydroxy-2-methylpropanamide] yielded an IC50 (IRAK4 enzyme) of 0.89 nM and an EC50 (TNFα) of 1.2 nM.
Work on `CC(C)Nc1cc(-c2ccc3cc(C#N)cnn23)ncc1-c1nnc(N2C[C@H]3CC[C@@H](C2)[C@@H]3NC(=O)C(=O)N=S(C)(C)=O)s1` [Example 103, N1-((1R,5S,8s)-3-(5-(6-(3-cyanopyrrolo[1,2-b]pyridazin-7-yl)-4-(isopropylamino)pyridin-3-yl)-1,3,4-thiadiazol-2-yl)-3-azabicyclo[3.2.1]octan-8-yl)-N2-(dimethyl(oxo)-16-sulfanylidene)oxalamide] yielded an IC50 (IRAK4 enzyme) of 0.51 nM and an EC50 (TNFα) of 1.4 nM.
`COC(=O)N1CCN(C(=O)N[C@@H]2[C@@H]3CC[C@H]2CN(c2nnc(-c4cnc(-c5ccc6cc(C#N)cnn56)cc4NC(C)C)s2)C3)CC1` [Example 105, methyl 4-(((1R,5S,8s)-3-(5-(6-(3-cyanopyrrolo[1,2-b]pyridazin-7-yl)-4-(isopropylamino)pyridin-3-yl)-1,3,4-thiadiazol-2-yl)-3-azabicyclo[3.2.1]octan-8-yl)carbamoyl)piperazine-1-carboxylate] showed an IC50 (IRAK4 enzyme) of 0.98 nM and an EC50 (TNFα) of 4.2 nM.
`CC(C)Nc1cc(-c2ccc3cc(C#N)cnn23)ncc1-c1nnc(N2C[C@H]3CC[C@@H](C2)[C@@H]3NC(=O)N2CCN(S(C)(=O)=O)CC2)s1` [Example 106, N-((1R,5S,8s)-3-(5-(6-(3-cyanopyrrolo[1,2-b]pyridazin-7-yl)-4-(isopropylamino)pyridin-3-yl)-1,3,4-thiadiazol-2-yl)-3-azabicyclo[3.2.1]octan-8-yl)-4-(methylsulfonyl)piperazine-1-carboxamide] showed an IC50 (IRAK4 enzyme) of 1.09 nM and an EC50 (TNFα) of 2.6 nM.
With `CC(C)Nc1cc(-c2ccc3cc(C#N)cnn23)ncc1-c1nnc([C@H]2CC[C@H](NC(=O)C3CC3)CC2)s1` [Example 125, N-((1r,4r)-4-(5-(6-(3-cyanopyrrolo[1,2-b]pyridazin-7-yl)-4-(isopropylamino)pyridin-3-yl)-1,3,4-thiadiazol-2-yl)cyclohexyl)cyclopropanecarboxamide] the IC50 (IRAK4 enzyme) was 0.25 nM and the EC50 (TNFα) was 5.4 nM.
With `COC(=O)N[C@H]1CC[C@H](c2nnc(-c3cnc(-c4ccc5cc(C#N)cnn45)cc3NC(C)C)s2)CC1` [Example 126, methyl ((1r,4r)-4-(5-(6-(3-cyanopyrrolo[1,2-b]pyridazin-7-yl)-4-(isopropylamino)pyridin-3-yl)-1,3,4-thiadiazol-2-yl)cyclohexyl)carbamate] the IC50 (IRAK4 enzyme) was 0.89 nM and the EC50 (TNFα) was 26.2 nM.
Compound `COC(=O)NC[C@H]1C[C@H](Nc2cc(-c3ccc4cc(C#N)cnn34)ncc2-c2nnc([C@H]3CC[C@H](NC(=O)C4CC4)CC3)s2)C1` [Example 134, methyl (((1R,3r)-3-((2-(3-cyanopyrrolo[1,2-b]pyridazin-7-yl)-5-(5-((1r,4R)-4-(cyclopropanecarboxamido)cyclohexyl)-1,3,4-thiadiazol-2-yl)pyridin-4-yl)amino)cyclobutyl)methyl)carbamate] has an IC50 (IRAK4 enzyme) of 0.94 nM and an EC50 (TNFα) of 6.9 nM.
Work on `N#Cc1cnn2c(-c3cc(NC4COC4)c(-c4nnc([C@H]5CC[C@H](NC(=O)C6CC6)CC5)s4)cn3)ccc2c1` [Example 135, N-((1r,4r)-4-(5-(6-(3-cyanopyrrolo[1,2-b]pyridazin-7-yl)-4-(oxetan-3-ylamino)pyridin-3-yl)-1,3,4-thiadiazol-2-yl)cyclohexyl)cyclopropanecarboxamide] yielded an IC50 (IRAK4 enzyme) of 0.52 nM and an EC50 (TNFα) of 10.5 nM.
`CC(C)Nc1cc(-c2ccc3cc(C#N)cnn23)ncc1-c1nnc([C@H]2CC[C@H](NC(=O)N3CCOCC3)CC2)s1` [Example 139, N-((1r,4r)-4-(5-(6-(3-cyanopyrrolo[1,2-b]pyridazin-7-yl)-4-(isopropylamino)pyridin-3-yl)-1,3,4-thiadiazol-2-yl)cyclohexyl)morpholine-4-carboxamide] gave an IC50 (IRAK4 enzyme) of 0.65 nM and an EC50 (TNFα) of 5.9 nM.
Compound `CNC(=O)N[C@H]1CC[C@H](c2nnc(-c3cnc(-c4ccc5cc(C#N)cnn45)cc3NC(C)C)s2)CC1` [Example 140, 1-((1r,4r)-4-(5-(6-(3-cyanopyrrolo[1,2-b]pyridazin-7-yl)-4-(isopropylamino)pyridin-3-yl)-1,3,4-thiadiazol-2-yl)cyclohexyl)-3-mcthylurea] has an IC50 (IRAK4 enzyme) of 0.84 nM and an EC50 (TNFα) of 6.4 nM.
Work on `N#Cc1cnn2c(-c3cc(NC4COC4)c(-c4nnc([C@H]5CC[C@H](NC(=O)N6CCOCC6)CC5)s4)cn3)ccc2c1` [Example 142, N-((1r,4r)-4-(5-(6-(3-cyanopyrrolo[1,2-b]pyridazin-7-yl)-4-(oxetan-3-ylamino)pyridin-3-yl)-1,3,4-thiadiazol-2-yl)cyclohexyl)morpholine-4-carboxamide] yielded an IC50 (IRAK4 enzyme) of 0.38 nM and an EC50 (TNFα) of 9.2 nM.
In the case of `COC(=O)NC[C@H]1C[C@H](Nc2cc(-c3ccc4cc(C#N)cnn34)ncc2-c2nnc([C@H]3CC[C@H](NC(=O)N4CCOCC4)CC3)s2)C1` [Example 143, methyl (((1R,3r)-3-((2-(3-cyanopyrrolo[1,2-b]pyridazin-7-yl)-5-(5-((1r,4R)-4-(morpholine-4-carboxamido)cyclohexyl)-1,3,4-thiadiazol-2-yl)pyridin-4-yl)amino)cyclobutyl)methyl)carbamate], the IC50 (IRAK4 enzyme) is reported as 0.34 nM and the EC50 (TNFα) is reported as 3.1 nM.
With `CC(=O)N[C@@H]1[C@@H]2CC[C@H]1CN(c1nnc(-c3cnc(-c4ccc5cc(C#N)cnn45)cc3NC3(C)COC3)s1)C2` [Example 144, N-((1R,5S,8s)-3-(5-(6-(3-cyanopyrrolo[1,2-b]pyridazin-7-yl)-4-((3-methyloxetan-3-yl)amino)pyridin-3-yl)-1,3,4-thiadiazol-2-yl)-3-azabicyclo[3.2.1]octan-8-yl)acetamide] the IC50 (IRAK4 enzyme) was 0.63 nM and the EC50 (TNFα) was 2.3 nM.
In the case of `CC1(Nc2cc(-c3ccc4cc(C#N)cnn34)ncc2-c2nnc(N3C[C@H]4CC[C@@H](C3)[C@H]4O)s2)COC1` [Example 149, 7-(5-(5-((1R,5S,8r)-8-hydroxy-3-azabicyclo[3.2.1]octan-3-yl)-1,3,4-thiadiazol-2-yl)-4-((3-methyloxetan-3-yl)amino)pyridin-2-yl)pyrrolo[1,2-b]pyridazine-3-carbonitrile], the IC50 (IRAK4 enzyme) is reported as 0.31 nM and the EC50 (TNFα) is reported as 4.9 nM.

Reference: patent US12060351B2, “Thiadiazole IRAK4 inhibitors” (Gilead Sciences, Inc., priority 2018, dated 2024)
